One may read the IC50 as the concentration needed to halve the response being measured.

The source made the active and inactive calls. The calls are words filed in the database; no cut-off is given here. Some results are limits rather than exact numbers.

Data set [1] can be described thus: Selectivity index, ratio of IC50 for cytotoxicity against human HepG2 cells to IC50 for erythrocytic stage of chloroquine-sensitive Plasmodium falciparum 3D7. In kind it is toxicity, cell-based. Particulars: read-out: Ratio IC50.
For the next data set, the system named is HepG2. The data set is described as follows: Cytotoxicity against human HepG2 cells assessed as reduction in cell viability incubated for 72 hrs by MTT assay. In kind it is functional, cell-based. The conditions noted are these: HepG2, 72 h. In general terms: Tetrazolium assays rely on reduction of a dye to a coloured formazan, in cell work by metabolically active cells.

Data set [2] concerns Plasmodium falciparum. Description: Resistance index, ratio of IC50 for antiplasmodial activity against chloroquine-resistant Plasmodium falciparum Dd2 to IC50 for antiplasmodial activity against chloroquine-sensitive Plasmodium falciparum 3D7. In kind it is functional.
Data set [3] deals with Plasmodium falciparum. Description: Antimalarial activity against erythrocytic stage of chloroquine-resistant Plasmodium falciparum Dd2 measured after 3 days by HRP2-ELISA analysis. It is filed as functional, organism-based. Particulars: Dd2, 72 h.
Data set [4] has as its system Plasmodium berghei. The data set is described as follows: Antiplasmodial activity against luciferase-expressing Plasmodium berghei infected in human Huh-7 cells assessed as reduction in parasite load at 1 to 10 uM preincubated with cells for 1 hr followed by parasite infection and measured after 46 hrs by bioluminescence assay. The conditions noted are these: dose 1-10 µM, time 47.0 hrs. It is filed as functional, organism-based.

The subject of data set [5] is Plasmodium falciparum. The data set is described as follows: Antimalarial activity against erythrocytic stage of chloroquine-sensitive Plasmodium falciparum 3D7 measured after 3 days by HRP2-ELISA analysis. In kind it is functional, organism-based. Particulars: 3D7, 72 h. For orientation: In an ELISA, binding on a coated surface is turned into a signal by an enzyme label.

Data set [6] concerns Plasmodium berghei. Description: Antiplasmodial activity against luciferase-expressing Plasmodium berghei infected in human Huh-7 cells assessed as reduction in parasite load preincubated with cells for 1 hr followed by parasite infection and measured after 46 hrs by bioluminescence assay. It is filed as functional, organism-based.

With `COc1ccc2c3ccnc(C)c3n(CCNC(=O)/C=C/c3ccc(C)cc3)c2c1`, the selectivity ratio in data set [1] is 6. In addition, the concentration for half-maximal inhibition (IC50) worked out at 8.16 µM in the data set with HepG2, 0.64 µM with Plasmodium falciparum [3] and 0.98 µM in the data set with Plasmodium falciparum [5]. Moreover, in the data set on Plasmodium falciparum [2], the Ratio IC50 amounted to 0.65. Further, the result in the data set with Plasmodium berghei [4] was Active.
For the compound `COc1ccc2c3ccnc(C)c3n(CCNC(=O)/C=C/c3cccc(OC(F)(F)F)c3)c2c1`, the IC50 with Plasmodium berghei [6] was found to be 2.29 µM; with HepG2, 6.64 µM; in the data set on Plasmodium falciparum [3], 2.11 µM; with Plasmodium falciparum [5], 0.35 µM. In addition, the selectivity ratio in data set [1] was 16.2. In addition, the Ratio IC50 in the data set on Plasmodium falciparum [2] turned out to be 6.03. Besides, in the data set with Plasmodium berghei [4], the outcome was Active.
In the case of `COc1ccc2c3ccnc(C)c3n(CCNC(=O)OC/C=C/c3cccc(C(F)(F)F)c3)c2c1`, the Ratio IC50 with Plasmodium falciparum [2] came out at 3.84. Besides, the IC50 came out at 1.92 µM in the data set on Plasmodium falciparum [3] and 0.5 µM with Plasmodium falciparum [5]. In addition, the result in the data set on Plasmodium berghei [4] was Active.
As for `COc1ccc2c3ccnc(C)c3n(CCNC(=O)/C=C/c3ccc([N+](=O)[O-])cc3)c2c1`, the selectivity ratio in data set [1] is 31.8. Also, the IC50 with HepG2 was 17.5 µM; in the data set on Plasmodium falciparum [3], 2.05 µM; with Plasmodium falciparum [5] it was 1.36 µM. In the data set on Plasmodium falciparum [2], the Ratio IC50 stood at 1.51. Besides, in the data set with Plasmodium berghei [4], the result was Active.
For the compound `COc1ccc2c3ccnc(C)c3n(CCNC(=O)/C=C/c3ccccc3Cl)c2c1`, the selectivity ratio in data set [1] is 21.8. Moreover, the results for the IC50 in the data set on HepG2, in the data set with Plasmodium falciparum [3] and with Plasmodium falciparum [5] were 7.19 µM, 0.5 µM and 0.32 µM, respectively. Further, the Ratio IC50 in the data set on Plasmodium falciparum [2] was found to be 1.56. For the same compound, the outcome in the data set on Plasmodium berghei [4] was Active.
Consider `CCCOc1ccc(/C=C/CNC(=O)NCCn2c3cc(OC)ccc3c3ccnc(C)c32)cc1`, for which the selectivity ratio in data set [1] is 10.3. Also, the results for the IC50 in the data set on HepG2, in the data set with Plasmodium falciparum [3] and in the data set with Plasmodium falciparum [5] were 4.33 µM, 1.12 µM and 0.42 µM, respectively. Also, the Ratio IC50 with Plasmodium falciparum [2] was determined as 2.67. In addition, the outcome with Plasmodium berghei [4] was Active.
For `COc1ccc2c3ccnc(C)c3n(CCNC(=O)OC/C=C/c3ccc([N+](=O)[O-])cc3)c2c1`, in the data set on Plasmodium falciparum [2], the Ratio IC50 was 0.92. The figures for the IC50 in the data set on Plasmodium falciparum [3] and in the data set on Plasmodium falciparum [5] were 0.33 µM and 0.36 µM, respectively. Moreover, in the data set with Plasmodium berghei [4], the outcome was Active.
Take `COc1ccc2c3ccnc(C)c3n(CCNC(=O)NC/C=C/c3cccc(C(F)(F)F)c3)c2c1`: the IC50 in the data set with Plasmodium berghei [6] amounted to 2.89 µM; in the data set with HepG2, 9.84 µM; in the data set with Plasmodium falciparum [3] it was 1.07 µM; in the data set on Plasmodium falciparum [5], 0.22 µM. Moreover, the selectivity ratio in data set [1] amounted to 44.7. Also, the Ratio IC50 in the data set with Plasmodium falciparum [2] came to 4.86. In addition, the outcome in the data set with Plasmodium berghei [4] was Active.
With `CCCOc1ccc(/C=C/COC(=O)NCCn2c3cc(OC)ccc3c3ccnc(C)c32)cc1`, the selectivity ratio in data set [1] stood at 19.9. For the same compound, the half-inhibitory concentration (IC50) in the data set on HepG2 worked out at 9.96 µM; in the data set on Plasmodium falciparum [3], 0.83 µM; in the data set on Plasmodium falciparum [5], 0.39 µM. In addition, the Ratio IC50 with Plasmodium falciparum [2] was 2.13. In the data set on Plasmodium berghei [4], the result was Active.
For the compound `COc1ccc2c3ccnc(C)c3n(CCNC(=O)OC/C=C/c3ccccc3Cl)c2c1`, in the data set with Plasmodium falciparum [2], the Ratio IC50 was 1.07. For the same compound, the 50% inhibitory concentration (IC50) in the data set on Plasmodium falciparum [3] stood at 1.33 µM; in the data set with Plasmodium falciparum [5], 1.24 µM.
With `COc1ccc2c3ccnc(C)c3n(CCNC(=O)OC/C=C/c3ccc(C)cc3)c2c1`, the selectivity ratio in data set [1] stood at 8.78. Besides, the half-maximal inhibitory concentration (IC50) in the data set on HepG2 is 9.92 µM; with Plasmodium falciparum [3], 2.28 µM; with Plasmodium falciparum [5] it was 1.13 µM. Further, the Ratio IC50 in the data set on Plasmodium falciparum [2] worked out at 2.48. In addition, the result in the data set with Plasmodium berghei [4] was Active.
In the case of `COc1ccc2c3ccnc(C)c3n(CCNC(=O)OC/C=C/c3cccc(OC(F)(F)F)c3)c2c1`, the selectivity ratio in data set [1] worked out at 12.8. Also, the half-maximal inhibitory concentration (IC50) with HepG2 turned out to be 8.71 µM; in the data set on Plasmodium falciparum [3], 1.78 µM; with Plasmodium falciparum [5], 0.68 µM. Also, in the data set with Plasmodium falciparum [2], the Ratio IC50 was 2.62. In addition, the outcome with Plasmodium berghei [4] was Active.
`COc1ccc2c3ccnc(C)c3n(CCNC(=O)/C=C/c3cccc(Cl)c3)c2c1`: in data set [1], the selectivity ratio stood at 25.6. The IC50 was determined as 8.97 µM with HepG2, 0.68 µM in the data set with Plasmodium falciparum [3] and 0.33 µM with Plasmodium falciparum [5]. The Ratio IC50 with Plasmodium falciparum [2] stood at 2.06. In addition, the result with Plasmodium berghei [4] was Active.
Consider `COc1ccc2c3ccnc(C)c3n(CCNC(=O)OC/C=C/c3cccc(Cl)c3)c2c1`, for which the selectivity ratio in data set [1] came to 8.78. Further, the half-inhibitory concentration (IC50) was found to be 8.52 µM with HepG2, 1.19 µM with Plasmodium falciparum [3] and 0.97 µM in the data set with Plasmodium falciparum [5]. The Ratio IC50 with Plasmodium falciparum [2] is 1.23. In addition, in the data set on Plasmodium berghei [4], the outcome was Active.
Consider `COc1ccc2c3ccnc(C)c3n(CCNC(=O)OC/C=C/c3ccc(Br)cc3)c2c1`, for which the selectivity ratio in data set [1] was 21.6. For the same compound, the IC50 in the data set with HepG2 worked out at 9.05 µM; in the data set on Plasmodium falciparum [3], 1.09 µM; in the data set with Plasmodium falciparum [5], 0.42 µM. In the data set with Plasmodium falciparum [2], the Ratio IC50 was 2.6. The outcome in the data set with Plasmodium berghei [4] was Active.
In the case of `COc1ccc2c(c1)[nH]c1c(C)nccc12` [HARMINE], in data set [1], the selectivity ratio worked out at 30. The IC50 in the data set with HepG2 is over 250 µM; in the data set with Plasmodium falciparum [3], over 27.7 µM. For the same compound, the Ratio IC50 with Plasmodium falciparum [2] is over 3.36.
With `COc1ccc2c3ccnc(C)c3n(CCNC(=O)/C=C/c3ccc(Br)cc3)c2c1`, in data set [1], the selectivity ratio is 8.76. Moreover, the figures for the IC50 in the data set with HepG2 and with Plasmodium falciparum [5] were 8.58 µM and 0.41 µM, respectively. Also, in the data set with Plasmodium berghei [4], the outcome was Active.
For `COc1ccc2c3ccnc(C)c3n(CCNC(=O)OC/C=C/c3ccccc3)c2c1`, the concentration for half-maximal inhibition (IC50) was found to be 3.38 µM in the data set with Plasmodium berghei [6], 7.21 µM in the data set on HepG2, 1.37 µM in the data set on Plasmodium falciparum [3] and 0.55 µM with Plasmodium falciparum [5]. Moreover, the selectivity ratio in data set [1] stood at 18.5. In the data set on Plasmodium falciparum [2], the Ratio IC50 was 2.49. The outcome with Plasmodium berghei [4] was Active.
As for `COc1cc(NC(C)CCCN)c2ncccc2c1` (configuration not stated), in the data set with Plasmodium berghei [4], the result was Active.
In the case of `COc1ccc2c3ccnc(C)c3n(CCNC(=O)OC/C=C/c3ccc(C(F)(F)F)cc3)c2c1`, the selectivity ratio in data set [1] was found to be 8.49. In addition, the IC50 is 6.71 µM with HepG2, 0.7 µM with Plasmodium falciparum [3] and 0.79 µM in the data set with Plasmodium falciparum [5]. Also, the Ratio IC50 in the data set on Plasmodium falciparum [2] was 0.89. Moreover, the outcome with Plasmodium berghei [4] was Active.
As to `COc1ccc2c3ccnc(C)c3n(CCNC(=O)OC/C=C/c3cc(C(F)(F)F)cc(C(F)(F)F)c3)c2c1`, the selectivity ratio in data set [1] came to 21.8. The figures for the IC50 in the data set with HepG2, in the data set on Plasmodium falciparum [3] and in the data set on Plasmodium falciparum [5] were 7.19 µM, 2.63 µM and 0.65 µM, respectively. The Ratio IC50 with Plasmodium falciparum [2] worked out at 4.05.

Values taken from ChEMBL document CHEMBL5365475, “Design, synthesis and antiplasmodial evaluation of new amide-, carbamate-, and ureido-type harmicines” (Bioorg Med Chem, 2023).
